US20090012019A1, “Methods and Compositions Related to TR4” (priority 2005, published 2009)

What was measured:
[1] = short acting NO donor, vendor reagent (Alexis); cited from earlier work
[2] = test system: TR4; conditions: C2C12 cells, 250 μM H2O2 for 2 h; mRNA at 4 hr, protein at 8 hr
Description: The levels of TR4 mRNA and proteins were measured by Q-PCR and Western blotting analyses.
To dissect potential molecular mechanism by which TR4 is involved in the ROS/DNA damage/DNA repair signal cascades, TR4 expression levels were examined upon exposure to genotoxic stress (such as H2O2).

[3] = test system: TR4; assay: Stress-induced TR4 expression in wt MEF; format: cell-based, mice; conditions: wt MEF treated with cobalt chloride to mimic hypoxia stress

## Nc1n[n+](-c2ccc(Cl)c(Cl)c2)no1.[Cl-] [GEA 3162, 1,2,3,4-oxatriazolium, 5-amino-3-(3,4-dichlorophenyl)-chloride]
[1]
  halftime: ~3 min

## OO [H2O2, hydrogen peroxide]
[2]
  TR4 mRNA and protein expression: increased

## [Cl][Co][Cl] [cobalt chloride]
[3]
  TR4 expression: up-regulated
